Measurements taken from US6710032B1, “In situ formation of CLA” (University of Maryland, priority 1998, dated 2004).

Columns and labels:
C57/B1/6J mice = test: Example 6: mouse milk fat and milk/fecal fatty acids when fed 18:1 isomer diets; assay type: in vivo; conditions: for Milk fat on day 10 versus day 6 of lactation: isomer about 25% of dietary fat, fed four days, creamatocrit; for Level of the test isomer in milk, % of the fat: day 10, fed the isomer diet
Description: C57/B1/6J mice fed a control diet (10 wt % fat) were switched to one of four isomer diets at day 6 of lactation after milk collection. Approximately 25% of the dietary fat (5 caloric %) during the treatment period was replaced with one of four specific isomers of oleic acid, either cis-9; cis-11; trans-9 or trans-11, other diet components were identical. The mice consumed these diets ad libitum for four days and were milked again on day 10 of lactation. Milk and fecal fatty acid composition was analyzed as fatty acid methyl esters by GC. Specific isomers were identified by relative retention times. Milk fat percentage was determined by the creamatocrit method and differences between day 6 and day 10 fat percentages were evaluated by a paired t-test.
A lactating mouse is milked after injection of oxytocin(0.2 ml of a 1 IU/ml solution) immediately prior to milking. Milking is accomplished by creating a suction through tube 26 and inserting the funnel end 28 or tube 26 onto the teat of a lactating mouse in the upside-down position. As milk is collected into the funnel, a small capillary tube (i.e. the same as that used to collect human blood samples) is manually positioned within the funnel to collect milk by capillary action. Failure to promptly collect the milk will expose the milk to evaporation thus increasing fat content of the sample.

cows = test: Ingestion of C18 trans 11 fats in cows, milk fat levels; conditions: in vivo

Compound	Milk fat on day 10 versus day 6 of lactation (C57/B1/6J mice)	Level of the test isomer in milk, % of the fat (C57/B1/6J mice)	Milk fat on day 10 versus day 6 of lactation (C57/B1/6J mice; listed as C18:1 t-11)	Milk fat levels in cows (cows)
CCCCCCCC/C=C\CCCCCCCC(=O)O [Cis-9, cis-9 18:1 fatty acid]	identical fat values on days 6 and 10			
CCCCCC/C=C\CCCCCCCCCC(=O)O [cis-11, cis-11 18:1 fatty acid]	not statistically different	10%		
CCCCCCCC/C=C/CCCCCCCC(=O)O [trans-9, trans-9 18:1 fatty acid]	statistically lower	5.8%		
CCCCCC/C=C/CCCCCCCCCC(=O)O [trans-11, trans-11 18:1 fatty acid]	not statistically different	3%	does not reduce milk fat	do not reduce milk fat levels
